# In patent publication US8092020B2 (priority 2002, dated 2012):
# How the values were obtained:
# Sprague-Dawley rat [1] = details: in vivo
# Hemoglobin (Hgb) = Hemoglobin (Hgb) (Homo sapiens, UniProt P68871+P69905); details: cited from earlier work
# Sprague-Dawley rat [2] = details: in vivo, ip
# Sprague-Dawley rat [3] = details: in vivo, ip; remark: listed apart in the source
# Chain of Hemoglobin (Hgb) (P68871 2-147): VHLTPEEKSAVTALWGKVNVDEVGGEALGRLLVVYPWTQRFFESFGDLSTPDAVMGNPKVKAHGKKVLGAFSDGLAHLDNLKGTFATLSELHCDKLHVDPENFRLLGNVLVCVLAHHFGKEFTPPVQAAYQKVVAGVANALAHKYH
# Chain of Hemoglobin (Hgb) (P69905 2-142): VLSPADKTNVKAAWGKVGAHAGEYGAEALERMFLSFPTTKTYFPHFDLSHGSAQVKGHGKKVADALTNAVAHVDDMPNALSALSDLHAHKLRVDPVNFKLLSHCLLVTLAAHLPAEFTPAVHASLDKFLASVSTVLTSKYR
Compound,concentration causing significant changes in both arterial and venous coloration (Sprague-Dawley rat [1]) [ppm],extrapolated EC50 for fundal artery coloration changes (Sprague-Dawley rat [1]) [ppm],lowest level with statistically significant arterial coloration changes (p<0.05) (Sprague-Dawley rat [1]) [ppm],maximal observed change in arterial coloration in all animals (Sprague-Dawley rat [1]) [%],near maximal change in arterial coloration in animals which did not expire (Sprague-Dawley rat [1]) [%],affinity of Hgb for CO relative to that for oxygen (Hemoglobin (Hgb)),lowest dose with statistically significant decreases in the pupillary light reflex (p<0.05) (Sprague-Dawley rat [2]) [µg/kg],time to animal expiration post-injection (Sprague-Dawley rat [3])
"[C-]#[O+] [CO, Carbon monoxide]",≥ 500,289±37,250,38.5,92.3,200-250 times greater,,
botulinum toxin,,,,,,,1e-05,at least 14 hours
